According to article PMC4331650 (Biochimica et Biophysica Acta, 2014):
Substitutions are numbered along the chain they refer to. Entries after “also recorded” stand apart in the source; their conditions may differ.

Assays:
F256A CLC-K1/barttin = target: T1, F256A CLC-K1/barttin (Rattus norvegicus, UniProt Q06393, F256A); assay: NFA effect on F256A CLC-K1/barttin, voltage clamp in Xenopus oocytes; assay type: cell-based
T1 sequence (Q06393 1-687 F256A): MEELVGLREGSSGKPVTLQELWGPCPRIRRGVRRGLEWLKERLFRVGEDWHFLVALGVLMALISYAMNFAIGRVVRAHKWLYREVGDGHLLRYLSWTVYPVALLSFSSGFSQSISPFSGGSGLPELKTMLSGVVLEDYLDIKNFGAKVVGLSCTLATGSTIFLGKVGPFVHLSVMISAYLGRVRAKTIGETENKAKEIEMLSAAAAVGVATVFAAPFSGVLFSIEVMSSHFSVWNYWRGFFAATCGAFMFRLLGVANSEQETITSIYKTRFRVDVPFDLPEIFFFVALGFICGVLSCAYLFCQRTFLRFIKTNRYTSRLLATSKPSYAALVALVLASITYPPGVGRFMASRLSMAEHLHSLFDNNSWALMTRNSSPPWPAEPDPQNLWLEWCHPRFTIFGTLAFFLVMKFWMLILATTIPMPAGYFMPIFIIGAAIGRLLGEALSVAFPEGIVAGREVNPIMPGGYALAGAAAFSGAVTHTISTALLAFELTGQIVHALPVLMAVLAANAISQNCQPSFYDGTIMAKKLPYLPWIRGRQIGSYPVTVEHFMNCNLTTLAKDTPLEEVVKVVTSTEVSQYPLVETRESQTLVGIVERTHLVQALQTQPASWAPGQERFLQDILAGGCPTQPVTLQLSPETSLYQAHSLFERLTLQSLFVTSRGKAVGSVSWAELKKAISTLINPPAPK
T1 sequence (Q8WZ55 1-320 Y98A partner): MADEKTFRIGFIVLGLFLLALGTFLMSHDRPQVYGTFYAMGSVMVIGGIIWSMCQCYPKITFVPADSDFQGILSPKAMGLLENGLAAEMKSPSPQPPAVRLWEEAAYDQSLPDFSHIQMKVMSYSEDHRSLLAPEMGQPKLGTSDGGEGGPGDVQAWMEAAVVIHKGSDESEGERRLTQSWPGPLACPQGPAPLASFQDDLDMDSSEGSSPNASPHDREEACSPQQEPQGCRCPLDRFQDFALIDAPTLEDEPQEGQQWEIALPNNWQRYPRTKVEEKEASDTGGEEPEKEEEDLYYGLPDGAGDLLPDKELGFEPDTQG

rat CLC-K1 [1] = settings: all concentrations tested; cited from earlier work
CLC-K1 without barttin = target: T2, CLC-K1 without barttin (Rattus norvegicus, UniProt Q06393); assay: NFA effect on WT CLC-K1 without barttin, voltage clamp in Xenopus oocytes; assay type: cell-based
T2 sequence (Q06393 1-687): T1 sequence (Q06393 1-687 F256A) with A256F

F256A CLC-K1 = target: T3, F256A CLC-K1 (Rattus norvegicus, UniProt Q06393, F256A); assay: NFA effect on F256A CLC-K1 without barttin, voltage clamp in Xenopus oocytes; assay type: cell-based; settings: expressed without barttin
T3 sequence (Q06393 1-687 F256A): T1 sequence (Q06393 1-687 F256A)

F256A CLC-Ka [2] = target: T4, F256A CLC-Ka (Homo sapiens, UniProt P51800, F256A); assay: NFA modulation of F256A CLC-Ka currents, voltage clamp in Xenopus oocytes; assay type: cell-based
T4 sequence (P51800 1-687 F256A): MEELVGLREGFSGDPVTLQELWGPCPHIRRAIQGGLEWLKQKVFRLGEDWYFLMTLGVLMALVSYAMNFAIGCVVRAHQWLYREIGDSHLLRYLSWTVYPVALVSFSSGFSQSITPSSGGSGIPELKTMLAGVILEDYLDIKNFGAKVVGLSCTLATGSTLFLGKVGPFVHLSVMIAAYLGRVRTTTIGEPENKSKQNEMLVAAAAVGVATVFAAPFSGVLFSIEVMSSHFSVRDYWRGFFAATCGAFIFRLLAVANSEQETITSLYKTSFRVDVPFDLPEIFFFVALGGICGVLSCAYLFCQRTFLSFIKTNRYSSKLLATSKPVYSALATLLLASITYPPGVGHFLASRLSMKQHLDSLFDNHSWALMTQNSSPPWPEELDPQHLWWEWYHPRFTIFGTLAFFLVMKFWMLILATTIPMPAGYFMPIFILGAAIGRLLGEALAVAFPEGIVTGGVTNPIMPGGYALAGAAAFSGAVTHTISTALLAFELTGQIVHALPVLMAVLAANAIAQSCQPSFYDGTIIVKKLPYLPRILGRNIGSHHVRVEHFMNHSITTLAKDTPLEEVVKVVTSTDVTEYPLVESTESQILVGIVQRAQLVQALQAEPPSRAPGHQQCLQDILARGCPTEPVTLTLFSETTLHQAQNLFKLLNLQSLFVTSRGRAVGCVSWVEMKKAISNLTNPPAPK
T4 sequence (Q8WZ55 1-320 Y98A partner): T1 sequence (Q8WZ55 1-320 Y98A partner)

rat CLC-K1 [3] = settings: HEK293 cells; all concentrations tested, from 0.3 to 2000 μM; cited from earlier work
F256A CLC-Ka [4] = target: T4, F256A CLC-Ka; assay type: cell-based; settings: 200 μM NFA
human CLC-Ks = settings: HEK293 cells; all concentrations tested, from 0.3 to 2000 μM; cited from earlier work
F256A CLC-Ka [5] = target: T4, F256A CLC-Ka; assay type: cell-based; settings: 200 μM NFA, 60 mV

O=C(O)c1cccnc1Nc1cccc(C(F)(F)F)c1 [NFA, niflumic acid]
effect of NFA on currents (F256A CLC-K1/barttin; 10 μM NFA, steady state currents not increased): transient potentiation | maximal potentiation (I1/I0) (F256A CLC-K1/barttin; transient potentiation extrapolated by single-exponential function): around 1.9 fold | effect on rat CLC-K1 (rat CLC-K1 [1]): blocked | currents relative to control conditions (CLC-K1 without barttin; 10 μM NFA): about 80% | currents relative to control conditions (CLC-K1 without barttin; 200 μM NFA): ~45% | effect of NFA on currents (F256A CLC-K1): no potentiation | potentiation of currents (F256A CLC-Ka [2]; 2 μM NFA): two-fold | current increase (F256A CLC-Ka [2]; 200 μM NFA, F256A CLC-Ka in Xenopus oocytes): ~ 25 fold | effect of NFA on currents (F256A CLC-Ka [2]; all concentrations tested, from 1 to 2000 μM): potentiated | maximal stimulation (potentiation) of currents (F256A CLC-Ka [2]; at 500 μM NFA, currents at 60 mV normalized to 0 NFA): 37 fold | effect of NFA on currents (rat CLC-K1 [3]): inhibited | open probability after potentiation by NFA (F256A CLC-Ka [4]; judged from variance–mean plots without curvature): below 0.5 | effect on single channel conductance (F256A CLC-Ka [4]; −100 mV and 60 mV, noise analysis): does not change significantly | effect of NFA on currents (human CLC-Ks): inhibited; also recorded: no longer potentiated | average current increase (F256A CLC-Ka [5]; SD, n = 5 patches): 39 +/− 13 | single channel current in NFA (average) (F256A CLC-Ka [5]; n = 3): 1.75 ± 0.10 pA | distance of Gaussian components of the amplitude histogram in NFA (F256A CLC-Ka [5]; patch of Fig. 4): 1.8 pA | increase of mean current in the patch (F256A CLC-Ka [5]; the single patch shown in Fig. 4): about 53 fold
